We go through 2 compounds from US5556870A, “Use of leflunomide for inhibiting interleukin 1 beta” (priority 1993, dated 1996).

Each structure is given as a SMILES string. Entries after “also recorded” stand apart in the source; their conditions may differ.

In data set [1] the test system is IL1β (interleukin 1 beta). As to the kind of experiment: Inhibition of LPS-induced synthesis and liberation of cellular IL1β in human mononuclear cells (sandwich enzyme immuno test of supernatant). The settings on record: for activity at 10 µM: concentration 0.01 mmol/l; for activity at 100 µM: concentration 0.1 mmol/l; for inhibitory effect on the synthesis and liberation of cytokines from human blood cells / effect on the IL1β level: in words; for effect on the IL1β level: human mononuclear cells, LPS-induced. Format: cell-based. The protocol: 10 ml of freshly prepared human citrate blood were carefully underlaid with 15 ml of Lymphoprep® (Molter GmbH, Heidelberg) and then centrifuged at 400×g for 40 min. at 20° C. The cell fraction which was visible as a white ring at the phase boundary was withdrawn with the aid of a syringe, diluted 1:1 (v/v) with PM-16 buffer (from Serva Feinbiochemica GmbH & Co. KG, Heidelberg) and then centrifuged, as above, for 10 min. […] Using a cell counter (type IT, from Coulter Diagnostics, Krefeld), the cell suspension, which is composed of about 90% lymphocytes and 10% monocytes, was adjusted to about 5 million cells/ml. Cell viability was monitored before and after the inhibition experiments using the known lactate dehydrogenase method.
The synthesis and liberation of cellular IL1β was induced by adding a solution of 500 ng of lipopolysaccharide (Salmonella abortus equi, Sigma GmbH, Deisenhofen) in 0.01 ml of dimethyl sulfoxide/water (1:10, v/v) to 0.48 ml of the above-described cell fraction. At the same time, a solution of leflunomide or leflunomide metabolite in 0.01 ml of dimethyl sulfoxide (for the final concentration in each case, see Tab. 1) was added to the cell fraction and the mixture was left at 37° C. for 20 h in a commercially available incubator. After cooling down to 0° C., the samples were centrifuged for 1 min. in a bench centrifuge and in each case 0.025 ml aliquots of the supernatant were examined for their IL1β content using a "sandwich" enzyme-immuno test kit (from Biermann GmbH, Bad Nauheim) in accordance with the manufacturer's instructions. The control values were determined without the addition of leflunomide or metabolite and set at 100%.

Data set [2] in a line: Metabolism of leflunomide in the mononuclear cell test sample (HPLC, time-dependent). The settings on record: human, mononuclear cells; mononuclear cell test sample, 37° C., HPLC. It counts as in vitro ADME, human.
For data set [3], the system named is isolated blood cell fraction (mononuclear cells). The data set is described as above. Format: in vitro ADME, human. The note with it: in words; isolated blood cell fraction (mononuclear cells).
The subject of data set [4] is NMRI mouse. Nature of the data set: Acute toxicity following intraperitoneal administration, NMRI mice. Format: in vivo. The settings on record: after 3 weeks, Litchfield and Wilcoxon, 30240 min. The protocol: (§1) The acute toxicity following intraperitoneal administration of the test substance was carried out using NMRI mice (20 to 25 g) and SD rats (120 to 195 g). The test substance was suspended in a 1% strength solution of sodium carboxymethyl cellulose. The different doses of the test substance were administered to the mice in a volume of 10 ml/kg of body weight and to the rats in a volume of 5 ml/kg of body weight. 10 animals were used per dose. After 3 weeks, the acute toxicity was determined by the method of Litchfield and Wilcoxon.

In data set [5] the test system is SD rat. Nature of the data set: Acute toxicity following intraperitoneal administration, SD rats. Format: in vivo. The settings on record: after 3 weeks, Litchfield and Wilcoxon, 30240 min. The protocol:
as §1

[6] abbreviates: Homo sapiens, control without addition = 100%, +/- standard deviation, 20 h, 37° C., LPS 500 ng.

As for `C/C(O)=C(\C#N)C(=O)Nc1ccc(C(F)(F)F)cc1` [Leflunomide metabolite, N-(4-trifluoromethylphenyl)-2-cyano-3-hydroxycrotonamide], in data set [1] (setting [6]), the activity at 10 µM was 100 ± 3% and the activity at 100 µM amounted to 99 ± 12%. Also, in data set [1], the “inhibitory effect on the synthesis and liberation of cytokines from human blood cells” value is reported as “does not exhibit this advantageous effect”; the “effect on the IL1β level” value is “practically no effect on the IL1β level”.
On to `Cc1oncc1C(=O)Nc1ccc(C(F)(F)F)cc1` [Leflunomide, N-(4-trifluoromethylphenyl)-5-methylisoxazole-4-carboxamide], for which the activity at 0.1 µM in data set [1] (Homo sapiens, concentration 0.0001 mmol/l, control without addition = 100%, +/- standard deviation, 20 h, 37° C., LPS 500 ng) was 86 ± 11%. In addition, in data set [1] (Homo sapiens, concentration 0.005 mmol/l, control without addition = 100%, n = 2, deviation not given, 20 h, 37° C., LPS 500 ng), the activity at 5 µM was 68%. Also, in data set [1] (setting [6]), the activity at 10 µM was found to be 70 ± 8% and the activity at 100 µM was determined as 17 ± 4%. Moreover, the activity at 50 µM in data set [1] (Homo sapiens, concentration 0.05 mmol/l, control without addition = 100%, +/- standard deviation, 20 h, 37° C., LPS 500 ng) was determined as 27 ± 6%. In data set [1], the “inhibitory effect on the synthesis and liberation of cytokines from human blood cells” value was “strong inhibitory effect”; the “effect on the IL1β level” value is on record as “clearly lowered”. Also, the half-life in data set [2] was roughly 10 h. Besides, the “metabolism of leflunomide under the experimental conditions” value in data set [3] is “did not, to any appreciable extent, metabolize the leflunomide to its metabolites; also recorded: metabolized only very slowly; also recorded: no appreciable metabolism”. Moreover, the “acute toxicity intraperitoneally LD50” value in data set [4] was 185 (163-210) mg/kg. In addition, the “acute toxicity intraperitoneally LD50” value in data set [5] is 170 (153-189) mg/kg.

A word on the half-life: it is the time needed for the level to fall by half in the phase considered. A higher half-life goes with slow loss.
